Assay results: PubChem BioAssay (NCI)
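Where inhibition never reached the appropriate level, the endpoint shown equals the highest concentration tested. Otherwise, values were interpolated linearly from a five-concentration, 48-hour dose response in 96-well plates. TGI: total growth inhibition.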

What was measured:
Test in all cases: NCI tumour cell line growth inhibition, 48 h
CCRF-CEM leukemia = tested on: CCRF-CEM leukemia
SF-295 CNS = tested on: SF-295 CNS
HCC-2998 colon = tested on: HCC-2998 colon
NCI-H522 lung = tested on: NCI-H522 lung
NCI/ADR-RES ovarian = tested on: NCI/ADR-RES ovarian
EKVX NSCLC = tested on: EKVX NSCLC
SF-539 CNS = tested on: SF-539 CNS
M14 melanoma = tested on: M14 melanoma
NCI-H23 lung = tested on: NCI-H23 lung
OVCAR-3 ovarian = tested on: OVCAR-3 ovarian
HS 578T breast = tested on: HS 578T breast
MDA-N = tested on: MDA-N
NCI-H460 lung = tested on: NCI-H460 lung
MCF7 breast = tested on: MCF7 breast
ACHN renal = tested on: ACHN renal
A498 renal = tested on: A498 renal
T-47D breast = tested on: T-47D breast
HCT-15 colon = tested on: HCT-15 colon
OVCAR-5 ovarian = tested on: OVCAR-5 ovarian
SK-MEL-5 melanoma = tested on: SK-MEL-5 melanoma
DU-145 prostate = tested on: DU-145 prostate
KM12 colon = tested on: KM12 colon
MDA-MB-231 breast = tested on: MDA-MB-231 breast
SNB-75 CNS = tested on: SNB-75 CNS
UACC-257 melanoma = tested on: UACC-257 melanoma
RXF 393 renal = tested on: RXF 393 renal
A549 NSCLC = tested on: A549 NSCLC
HOP-62 NSCLC = tested on: HOP-62 NSCLC
SN12C renal = tested on: SN12C renal
BT-549 breast = tested on: BT-549 breast
SR leukemia = tested on: SR leukemia
MALME-3M melanoma = tested on: MALME-3M melanoma
SW-620 colon = tested on: SW-620 colon
OVCAR-8 ovarian = tested on: OVCAR-8 ovarian
HT29 colon = tested on: HT29 colon
NCI-H226 lung = tested on: NCI-H226 lung
SNB-19 CNS = tested on: SNB-19 CNS
MOLT-4 leukemia = tested on: MOLT-4 leukemia
CAKI-1 renal = tested on: CAKI-1 renal
HOP-92 NSCLC = tested on: HOP-92 NSCLC
HCT-116 colon = tested on: HCT-116 colon
SF-268 CNS = tested on: SF-268 CNS
UO-31 renal = tested on: UO-31 renal
UACC-62 melanoma = tested on: UACC-62 melanoma
786-0 renal = tested on: 786-0 renal
K-562 leukemia = tested on: K-562 leukemia
OVCAR-4 ovarian = tested on: OVCAR-4 ovarian
COLO 205 colon = tested on: COLO 205 colon
SK-MEL-28 melanoma = tested on: SK-MEL-28 melanoma
MDA-MB-435 = tested on: MDA-MB-435
TK-10 renal = tested on: TK-10 renal
PC-3 prostate = tested on: PC-3 prostate
U251 CNS = tested on: U251 CNS
SK-MEL-2 melanoma = tested on: SK-MEL-2 melanoma
HL-60(TB) leukemia = tested on: HL-60(TB) leukemia
IGROV1 ovarian = tested on: IGROV1 ovarian
LOX IMVI melanoma = tested on: LOX IMVI melanoma
SK-OV-3 ovarian = tested on: SK-OV-3 ovarian

Measured: TGI

c1csc(-c2cc(-c3ccsc3)c(-c3cccs3)s2)c1
82.5 µM: COLO 205 colon
89.8 µM: MCF7 breast
not listed: SK-MEL-2 melanoma | HL-60(TB) leukemia | IGROV1 ovarian | LOX IMVI melanoma | SK-OV-3 ovarian
> 100 µM: all other assays above

COC(=O)C1=C(O)C(C(=O)OC)[C@@]2(O)[C@@H](C(=O)OC)C(c3ccc(OC(=O)/C(=C/c4ccccc4)c4ccccc4)cc3)C[C@@H]1[C@@H]2C(=O)OC (stereo not given in full)
35.6 µM: SNB-75 CNS
8.44 µM: SF-539 CNS
40.4 µM: UO-31 renal
42.6 µM: NCI-H226 lung
33 µM: M14 melanoma
22.5 µM: LOX IMVI melanoma
51.4 µM: TK-10 renal
87.7 µM: MDA-N
96.4 µM: A498 renal
63.1 µM: RXF 393 renal
46.2 µM: SK-MEL-2 melanoma
17.2 µM: UACC-62 melanoma
not listed: HCC-2998 colon
> 100 µM: all other assays above
